{"source": "patent US8741897B2", "about": "“Glucocorticoid mimetics, methods of making them, pharmaceutical compositions and uses thereof” (Boehringer Ingelheim Pharmaceuticals Inc., priority 2003, dated 2014)"}
{"system": "glucocorticoid receptor function", "assay": "one or more of the above assays (GR binding and glucocorticoid receptor cell assays: aromatase, IL-6, TAT, MMTV-Luc, IL-8, ICAM-Luc)", "type": "cell-based", "conditions": "assay not specified per compound", "protocol": "B. Glucocorticoid Receptor Cell Assays\n1. Induction of Aromatase in Fibroblasts (Cell Assay for Transactivation)\nDexamethasone, a synthetic ligand to the glucocorticoid receptor (GR), induces expression of aromatase in human foreskin fibroblast cells. The activity of aromatase is measured by the conversion of testosterone to estradiol in culture media.\nOn the day of the experiment, the media in the wells is replaced with fresh media. Cells are treated with test compounds to final concentrations of 10^−5 M to 10^−8 M, and testosterone to a final concentration of 300 ng/mL. Each well has a total volume of 100 μL. Samples are made in duplicates. Control wells include: (a) wells that receive testosterone only, and (b) wells that receive testosterone plus 2 μM of dexamethasone to provide maximum induction of aromatase. Plates are incubated at 37° C. overnight (15 to 18 hours), and supernatants are harvested at the end of incubation. […] The amount of estradiol is inversely proportional to the ELISA signals in each well. The extent of aromatase induction by test compounds is expressed as a relative percentage to dexamethasone. EC50 values of test compounds are derived by non-linear curve fitting.\n2. Inhibition of IL-6 Production in Fibroblasts (Cell Assay for Transrepression)\nHuman foreskin fibroblast cells produce IL-6 in response to stimulation by proinflammatory cytokine IL-1.\nOn the next day, media in the wells is replaced with fresh media. Cells are treated with IL-1 (rhIL-1α, R&D Systems Cat. No. 200-LA) to a final concentration of 1 ng/mL, and with test compounds to final concentrations of 10^−5 M to 10^−8 M, in a total volume of 200 μL per well. Samples are done in duplicates. […] Positive control wells receive IL-1 only and represent maximum (or 100%) amount of IL-6 production. Plates are incubated at 37° C. overnight (15 to 18 hours), and supernatants are harvested at the end of incubation. IL-6 levels in the supernatants are determined by the ELISA kits for IL-6 (MedSystems Diagnostics GmbH, Vienna, Austria, Cat. No. BMS213TEN) according to manufacture's instructions. The extent of inhibition of IL-6 by test compounds is expressed in percentage relative to positive controls. IC50 values of test compounds are derived by non-linear curve fitting.\nEvaluation of agonist or antagonist activity of compounds binding to the glucocorticoid receptor may be determined by any of the assays.\n3. Modulation of Tyrosine Aminotransferase (TAT) Induction in Rat Hepatoma Cells\nTesting of compounds for agonist or antagonist activity in induction of tyrosine aminotransferase (TAT) in rat hepatoma cells.\nH4-II-E-C3 cells were incubated overnight in 96 well plates (20,000 cells/100 μL/well) in MEM medium containing 10% heat inactivated FBS and 1% nonessential amino acids. On the next day, cells were stimulated with the indicated concentrations of dexamethasone or test compound (dissolved in DMSO, final DMSO concentration 0.2%) for 18 hours. Control cells were treated with 0.2% DMSO. After 18 hours, the cells were lysed in a buffer containing 0.1% Triton X-100 and the TAT activity was measured in a photometric assay using tyrosine and alpha-ketoglutarate as substrates.\nFor measuring antagonist activity, the hepatoma cells were pre-stimulated by addition of dexamethasone (concentration ranges from 3×10^−9 M to 3×10^−8 M) shortly before the test compound was applied to the cells.\n4. Modulation of MMTV-Luc Induction in HeLa Cells\nTesting of compounds for agonist or antagonist activity in stimulation of MMTV-(mouse mammary tumor virus) promoter in HeLa cells.\nCells were cultured overnight in DMEM medium without phenol red, supplemented with 3% CCS (charcoal treated calf serum) and then transferred to 96 well plates (15,000 cells/100 μL/well)."}
{"smiles": "CC(C)(CC(O)(Cc1cc2nc(N3CCCC3)ncc2[nH]1)C(F)(F)F)c1cc(Cl)cc2c1OCC2", "note": "(centres unmarked) [4-(5-Chloro-2,3-dihydrobenzofuran-7-yl)-1,1,1-trifluoro-4-methyl-2-(2-pyrrolidin-1-yl-5H-pyrrolo[3,2-d]pyrimidin-6-ylmethyl)pentan-2-ol]", "activity as agonists of the glucocorticoid receptor function in one or more of the above assays": "potent agonists"}
{"smiles": "CSc1cc2c(c(C(C)(C)CC(O)(Cn3ccc4ncccc43)C(F)(F)F)c1)OCC2", "note": "(centres unmarked) [1,1,1-Trifluoro-4-methyl-4-(5-methylsulfanyl-2,3-dihydrobenzofuran-7-yl)-2-pyrrolo[3,2-b]pyridin-1-ylmethylpentan-2-ol]", "activity as agonists of the glucocorticoid receptor function in one or more of the above assays": "potent agonists"}
{"smiles": "CSc1cc2c(c(C(C)(C)CC(O)(Cc3cc4cc(Cl)ncc4[nH]3)C(F)(F)F)c1)OCC2", "note": "(centres unmarked) [2-(5-Chloro-1H-pyrrolo[2,3-c]pyridin-2-ylmethyl)-1,1,1-trifluoro-4-methyl-4-(5-methylsulfanyl-2,3-dihydrobenzofuran-7-yl)pentan-2-ol]", "activity as agonists of the glucocorticoid receptor function in one or more of the above assays": "potent agonists"}
{"smiles": "CC(C)(CC(O)(Cc1cc2cc(-c3ccc(F)cc3)ncc2[nH]1)C(F)(F)F)c1cccc(F)c1", "note": "(centres unmarked) [1,1,1-Trifluoro-4-(3-fluorophenyl)-2-[5-(4-fluorophenyl)-1H-pyrrolo[2,3-c]pyridin-2-ylmethyl]-4-methylpentan-2-ol]", "activity as agonists of the glucocorticoid receptor function in one or more of the above assays": "potent agonists"}
{"smiles": "CC(C)(CC(O)(Cc1cc2nc(CN3CCOCC3)ccc2[nH]1)C(F)(F)F)c1cc(Cl)ccc1O", "note": "(centres unmarked) [4-Chloro-2-[4,4,4-trifluoro-3-hydroxy-1,1-dimethyl-3-(5-morpholin-4-ylmethyl-1H-pyrrolo[3,2-b]pyridin-2-ylmethyl)butyl]phenol]", "activity as agonists of the glucocorticoid receptor function in one or more of the above assays": "potent agonists"}
{"smiles": "CC(C)(CC(O)(Cc1cc2cc(Cl)ncc2[nH]1)C(F)(F)F)c1cc(Br)ccc1O", "note": "(centres unmarked) [4-Bromo-2-[3-(5-chloro-1H-pyrrolo[2,3-c]pyridin-2-ylmethyl)-4,4,4-trifluoro-3-hydroxy-1,1-dimethylbutyl]phenol]", "activity as agonists of the glucocorticoid receptor function in one or more of the above assays": "potent agonists"}
{"smiles": "CC(C)(CC(O)(Cc1cc2cc(-c3cccnc3)ccc2[nH]1)C(F)(F)F)c1cc(F)cc2c1OCC2", "note": "(centres unmarked) [1,1,1-Trifluoro-4-(5-fluoro-2,3-dihydrobenzofuran-7-yl)-4-methyl-2-(5-pyridin-3-yl-1H-indol-2-ylmethyl)pentan-2-ol]", "activity as agonists of the glucocorticoid receptor function in one or more of the above assays": "potent agonists"}
{"smiles": "Cc1ccc(F)cc1C(C)(C)CC(O)(Cc1cc2c(C)cncc2[nH]1)C(F)(F)F", "note": "(centres unmarked) [1,1,1-Trifluoro-4-(5-fluoro-2-methylphenyl)-4-methyl-2-(4-methyl-1H-pyrrolo[2,3-c]pyridin-2-ylmethyl)pentan-2-ol]", "activity as agonists of the glucocorticoid receptor function in one or more of the above assays": "potent agonists"}
{"smiles": "CC(C)(CC(O)(Cc1cc2nc(-c3ccccc3)ncc2[nH]1)C(F)(F)F)c1cccc(F)c1", "note": "(centres unmarked) [1,1,1-Trifluoro-4-(3-fluorophenyl)-4-methyl-2-(2-phenyl-5H-pyrrolo[3,2-d]pyrimidin-6-ylmethyl)pentan-2-ol]", "activity as agonists of the glucocorticoid receptor function in one or more of the above assays": "potent agonists"}
{"smiles": "CC(C)(CC(O)(Cc1cc2ncncc2[nH]1)C(F)(F)F)c1cc(F)ccc1O", "note": "(centres unmarked) [4-Fluoro-2-[4,4,4-trifluoro-3-hydroxy-1,1-dimethyl-3-(5H-pyrrolo[3,2-d]pyrimidin-6-ylmethyl)butyl]phenol]", "activity as agonists of the glucocorticoid receptor function in one or more of the above assays": "potent agonists"}
{"smiles": "CC(C)(CC(O)(Cc1cc2c(C#N)cccc2[nH]1)C(F)(F)F)c1cc(F)ccc1O", "note": "(centres unmarked) [2-[4-(5-Fluoro-2-hydroxyphenyl)-2-hydroxy-4-methyl-2-trifluoromethylpentyl]-1H-indole-4-carbonitrile]", "activity as agonists of the glucocorticoid receptor function in one or more of the above assays": "potent agonists"}
{"smiles": "Cc1ccc(F)cc1C(C)(C)CC(O)(Cc1cc2cnccc2[nH]1)C(C)C", "note": "(centres unmarked) [5-(5-Fluoro-2-methylphenyl)-2,5-dimethyl-3-(1H-pyrrolo[3,2-c]pyridin-2-ylmethyl)hexan-3-ol]", "activity as agonists of the glucocorticoid receptor function in one or more of the above assays": "agonists"}
{"smiles": "CC(C)(CC(O)(Cc1cc2cc(N3CCCCC3)ncc2[nH]1)C(F)(F)F)c1cccc(F)c1", "note": "(centres unmarked) [1,1,1-Trifluoro-4-(3-fluorophenyl)-4-methyl-2-(5-piperidin-1-yl-1H-pyrrolo[2,3-c]pyridin-2-ylmethyl)pentan-2-ol]", "activity as agonists of the glucocorticoid receptor function in one or more of the above assays": "potent agonists"}
{"smiles": "COc1ccc(F)cc1C(C)(C)CC(O)(Cc1cc2cnccc2[nH]1)C(C)C", "note": "(centres unmarked) [5-(5-Fluoro-2-methoxyphenyl)-2,5-dimethyl-3-(1H-pyrrolo[3,2-c]pyridin-2-ylmethyl)hexan-3-ol]", "activity as agonists of the glucocorticoid receptor function in one or more of the above assays": "agonists"}
{"smiles": "Cc1ccc(F)cc1C(C)(C)CC(O)(Cc1[nH]c2cnccc2c1C)C(C)(C)C", "note": "(centres unmarked) [5-(5-Fluoro-2-methylphenyl)-2,2,5-trimethyl-3-(3-methyl-1H-pyrrolo[2,3-c]pyridin-2-ylmethyl)hexan-3-ol]", "activity as agonists of the glucocorticoid receptor function in one or more of the above assays": "agonists"}
{"smiles": "CC(C)C(O)(Cc1cc2ccncc2[nH]1)CC(C)(C)c1cc(Cl)cc2c1OCC2", "note": "(centres unmarked) [5-(5-Chloro-2,3-dihydrobenzofuran-7-yl)-2,5-dimethyl-3-(1H-pyrrolo[2,3-c]pyridin-2-ylmethyl)hexan-3-ol]", "activity as agonists of the glucocorticoid receptor function in one or more of the above assays": "agonists"}
{"smiles": "COc1ccc(-c2ccccc2C#N)cc1C(C)(C)CC(O)(Cc1cc2c(C)cncc2[nH]1)C(F)(F)F", "note": "(centres unmarked) [4′-Methoxy-3′-[4,4,4-trifluoro-3-hydroxy-1,1-dimethyl-3-(4-methyl-1H-pyrrolo[2,3-c]pyridin-2-ylmethyl)butyl]biphenyl-2-carbonitrile]", "activity as agonists of the glucocorticoid receptor function in one or more of the above assays": "potent agonists"}
{"smiles": "CC(C)(CC(O)(Cc1cc2cc(Cl)ncc2[nH]1)C(F)(F)F)c1cc(Cl)cc2c1OCC2", "note": "(centres unmarked) [4-(5-Chloro-2,3-dihydrobenzofuran-7-yl)-2-(5-chloro-1H-pyrrolo[2,3-c]pyridin-2-ylmethyl)-1,1,1-trifluoro-4-methylpentan-2-ol]", "activity as agonists of the glucocorticoid receptor function in one or more of the above assays": "potent agonists"}
{"smiles": "CCOc1cc2cc(CC(O)(CC(C)(C)c3cc(F)ccc3C)C(F)(F)F)[nH]c2cn1", "note": "(centres unmarked) [2-(5-Ethoxy-1H-pyrrolo[2,3-c]pyridin-2-ylmethyl)-1,1,1-trifluoro-4-(5-fluoro-2-methylphenyl)-4-methylpentan-2-ol]", "activity as agonists of the glucocorticoid receptor function in one or more of the above assays": "potent agonists"}
{"smiles": "COc1ccc(-c2ccsc2)cc1C(C)(C)CC(O)(Cc1cc2cc(OC(C)C)ncc2[nH]1)C(F)(F)F", "note": "(centres unmarked) [1,1,1-Trifluoro-2-(5-isopropoxy-1H-pyrrolo[2,3-c]pyridin-2-ylmethyl)-4-(2-methoxy-5-thiophen-3-ylphenyl)-4-methylpentan-2-ol]", "activity as agonists of the glucocorticoid receptor function in one or more of the above assays": "potent agonists"}
{"smiles": "COc1ccc(-c2ccccc2)cc1C(C)(C)CC(O)(Cc1cc2cc(N3CCCCC3)ncc2[nH]1)C(F)(F)F", "note": "(centres unmarked) [1,1,1-Trifluoro-4-(4-methoxybiphenyl-3-yl)-4-methyl-2-(5-piperidin-1-yl-1H-pyrrolo[2,3-c]pyridin-2-ylmethyl)pentan-2-ol]", "activity as agonists of the glucocorticoid receptor function in one or more of the above assays": "potent agonists"}
{"smiles": "CC(C)(CC(O)(Cc1cc2cc(-c3ccncc3)ccc2[nH]1)C(F)(F)F)c1cc(F)cc2c1OCC2", "note": "(centres unmarked) [1,1,1-Trifluoro-4-(5-fluoro-2,3-dihydrobenzofuran-7-yl)-4-methyl-2-(5-pyridin-4-yl-1H-indol-2-ylmethyl)pentan-2-ol]", "activity as agonists of the glucocorticoid receptor function in one or more of the above assays": "potent agonists"}
{"smiles": "CC(C)(CC(O)(Cc1cc2cnccc2[nH]1)C(F)F)c1cc(Cl)cc2c1OCC2", "note": "(centres unmarked) [4-(5-Chloro-2,3-dihydrobenzofuran-7-yl)-1,1-difluoro-4-methyl-2-(1H-pyrrolo[3,2-c]pyridin-2-ylmethyl)pentan-2-ol]", "activity as agonists of the glucocorticoid receptor function in one or more of the above assays": "agonists"}
